Reference: patent publication US11213559B2, “Formulation for treatment of irritable bowel disease” (ABOCA S.P.A. SOCIETA′ AGRICOLA, priority 2012, dated 2022)

What was measured:
[1] = system: colitis induced by acetic acid; test: model of colitis induced by acetic acid in rats; type: in vivo, rat; conditions: average ± SEM
Protocol: To test in vivo the efficacy of the composition of the invention, said composition was formulated in capsules and was assessed in terms of its ability to protect the susceptibility of the intestinal mucosa to irritating stimuli. Based on the presumed mechanism of the product to act on the inflammatory component of IBS (supported only recently by the literature) by means of a local, indirect protective and anti-inflammatory action also stemming from mucoadhesion, an experimental model of inflammatory colitis, not specific for IBS, was selected.
The study was carried out on a model of colitis induced by acetic acid, as described by McPherson B R, Pfeiffer C J (1978) Experimental Production of Diffuse Colitis in Rats. Digestion;17:135-150; Mousavizadeh K, Rahimian R, Fakhfouri G, Aslani F S, Ghafourifar P. (2009) Anti-inflammatory effects of 5-HT receptor antagonist, tropisetron on experimental colitis in rats. Eur J Clin Invest.;39(5):375-83; Noronha-Blob L, Lowe V C, Muhlahauser R O, Burch R M. (1993) NPC 15669, an inhibitor of neutrophil recruitment, is efficacious in acetic acid-induced colitis in rats. Gastroenterology, 104:1021-9.
Each group was formed by 10 rats in accordance with the following schema • 1. Rats without colitis, treated with vehicle 10 ml/kg, (p.o.); • 2. Rats with colitis, treated with vehicle 10 ml/kg, (p.o.); • 3. Rats with colitis, treated with the composition of the invention, (p.o.); • 4. Rats with colitis, treated with dexamethasone, (p.o) as reference. Macroscopic and microscopic parameters were measured.
In particular, the macroscopic damage to the colon, the colon index (mg of colon/grams of rat) and the activity of myeloperoxidase, an enzyme contained in the intracellular azurophilic granules of the polymorphonuclear leukocytes (PMNs), which can therefore be used as an indicator of the accumulation of the migrated neutrophils in the tissues during an inflammatory process, are shown.
To verify the effectiveness of the use of the incense ingredient in the formulations, the same experiment of inflammatory colitis induced by acetic acid was carried out with a formulation devoid of incense (ABO-INT-10-2), which corresponds to the formulation Abo-INT 10 (general formulations on page 16), devoid of incense.

[2] = system: duodenum; test: protective effect on intestinal mucosa in Ussing chamber, duodenum; type: in vivo, rat; conditions: isolated (stress) rats, composition 500 mg/kg, dexamethasone 1 mg/kg intragastrically, average ±SD
Protocol: (§1) The experiment was conducted in order to verify the effects of the tested substances on the artificially damaged intestinal mucosa ex vivo (for example hydrochloric acid).
(§2) […] male Sprague Dawley rats weighing approximately 200-250 g were used for the test.
(§3) 4 groups of 8 rats A, B, C, D were formed, respectively containing untreated rats, rats treated with 1.0 ml saline solution intragastrically, rats treated with 1.0 ml (500 mg/kg of body weight) of composition of the invention intragastrically, and rats treated with 1.0 ml of dexamethasone (1 mg/kg of body weight) intragastrically.
(§4) The animals in groups A, B, C and D were deprived of food for 18 hours.
Four rats per group were anaesthetised 30 minutes after the above-indicated administration by means of intraperitoneal injection and were kept in a heated atmosphere.
A sample of the duodenum was then dissected from these rats and mounted between the two half-chambers of the Ussing chamber and damage was induced using hydrochloride (pH 8.0; pH 5.5). […]
(§5) The ddp in mV through the mucosal membrane was measured directly as well as the short-circuit current, and these were monitored for 15 minutes whilst the transmembrane resistance was calculated in ohm x cm^2 using Ohm's law. […]
(§6) The system was then stabilised for 10 minutes and the same parameters as indicated above were then measured for 15 minutes. […]

[3] = system: ileum; test: protective effect on intestinal mucosa in Ussing chamber, ileum; type: in vivo, rat; conditions: isolated (stress) rats, composition 500 mg/kg, dexamethasone 1 mg/kg intragastrically, average ±SD
Protocol: as §1, §2, §3, §4
Four rats per group were then anaesthetised 50 minutes after the above-indicated administration by means of intraperitoneal injection and were kept in a heated atmosphere.
A sample of the ileum was then dissected from these rats and mounted between the two half-chambers of the Ussing chamber and damage was induced using hydrochloride (pH 8.0; pH 6.5). […]
as §5, §6

[4] = system: CaCo-2; test: antioxidant activity test (DCFH-DA, oxidative stress by oxygenated water); type: cell-based, human; conditions: 0.15 mg/ml
Protocol: In order to verify the antioxidant power of the composition of the invention in a biological system similar to the intestinal epithelium (CaCo-2), the following tests were carried out: Evaluation of the antioxidant activity of the sample on human cells subject to chemical, progressive oxidative stress. The assessment of the antioxidant action is acquired from the quantification of the formation of free radicals in cells exposed to the sample and to oxidative stress. The antioxidant activity of the sample in analyses was evaluated by comparison with that of a safe hydrosoluble antioxidant, such as vitamin C. The protocol is based on the use of a fluorescent probe called 2′,7′-dichlorofluorescein diacetate (DCFH-DA), a non-fluorescent stable molecule that enters the cells, bonds to the membrane macromolecules, where it is hydrolysed from cytoplasmic esterases to give dichlorofluorescein (DCFH), a molecule that again is non-fluorescent. DCFH, in the presence of free radicals, is oxidised, forming a highly fluorescent molecule: DCF. The oxidative stress is induced via oxygenated water. The radicals produced constitutively from the cells with the addition of the sample, but without the addition of the oxidising agent, were also monitored as a negative control (absence of oxidant activity of the composition of the invention).

[5] = Table 1, rats with 4% acetic acid colitis, ABO/INT-10 1 g/kg, dexamethasone 1 mg/kg p.o.
[6] = Table 3, experiment with formulation devoid of incense, ABO/INT-10-2 1 g/kg, dexamethasone 1 mg/kg
[7] = Table 4, experiment with formulation devoid of incense, ABO/INT-10-2 1 g/kg, dexamethasone 1 mg/kg

C[C@@H]1C[C@H]2[C@@H]3CCC4=CC(=O)C=C[C@]4(C)[C@@]3(F)[C@@H](O)C[C@]2(C)[C@@]1(O)C(=O)CO [Dexamethasone, dexamethasone]
Faecal excretion number [1, 5]: 40.40 ± 8.035
Faecal excretion weight [1, 5]: 9.440 ± 1.790 g
Body weight (g) Final ([1]; Table 1, rats with 4% acetic acid colitis, final, ABO/INT-10 1 g/kg, dexamethasone 1 mg/kg p.o.): 214.3 ± 4.177 g
Macroscopic damage ([1]; Table 2, colon, rats with 4% acetic acid colitis, composition 1 g/kg, dexamethasone 1 mg/kg p.o.): 4.417 ± 1.052
Colon index ([1]; Table 2, mg of colon/grams of rat, composition 1 g/kg, dexamethasone 1 mg/kg p.o.): 6.041 ± 0.341 mg/g
MPO (U/mg tissue) ([1]; Table 2, myeloperoxidase activity, after 24 hours, composition 1 g/kg, dexamethasone 1 mg/kg p.o.): 15.387 ± 6.136 U/mg tissue
Defecations number [1, 6]: 42.10 ± 9.011
Defecations weight [1, 6]: 9.44 ± 1.79 g
Weight variation (g) [1, 6]: 2.167 ± 1.493°°** g
Colon index (mg/g) [1, 7]: 6.041 ± 0.341°** mg/g
MPO (U/mg tissue) [1, 7]: 16.423 ± 5.9780°* U/mg tissue
Macroscopic damage [1, 7]: 4.417 ± 1.052°°**
average value of resistance of the duodenum after induction of damage ([2]; Krebs buffer at pH 5.5): 48.0±12.7 ohm×cm^2
average value of resistance of the duodenum ([2]; physiological pH Krebs buffer, 30 minutes): 50.4±13.9 ohm×cm^2
average value of resistance of the ileum after induction of damage ([3]; Krebs buffer at pH 6.5): 39.7±8.1 ohm×cm^2
average value of resistance of the ileum ([3]; physiological pH Krebs buffer, 50 minutes): 50.6±13.4 ohm×cm^2

O=C1O[C@H]([C@@H](O)CO)C(O)=C1O [vitamin C]
% reduction of free radicals ([4]; 30 min): 38%
% reduction of free radicals ([4]; 60 min): 44.8%
% reduction of free radicals ([4]; 90 min): 48%
% reduction of free radicals ([4]; 120 min): 47%
